# Biological target: T1, PTP1B (Homo sapiens, UniProt P18031)
# T1 sequence (P18031 1-321): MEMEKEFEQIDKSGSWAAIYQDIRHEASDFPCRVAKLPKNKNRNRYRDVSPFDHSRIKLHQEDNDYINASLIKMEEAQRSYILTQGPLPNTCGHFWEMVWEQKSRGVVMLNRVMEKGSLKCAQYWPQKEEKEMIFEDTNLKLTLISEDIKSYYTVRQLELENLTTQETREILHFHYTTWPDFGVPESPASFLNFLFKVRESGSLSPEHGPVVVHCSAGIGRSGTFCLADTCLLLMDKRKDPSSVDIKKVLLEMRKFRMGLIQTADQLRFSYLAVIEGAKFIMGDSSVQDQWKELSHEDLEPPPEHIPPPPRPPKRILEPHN
# Test: SPR
# Type: binding
smiles,measurement,value
"CCOCc1cc(O)c(O)c(Br)c1Cc1cc(O)c(O)c(Br)c1Br [BPN, 3,4-Dibromo-5-(2-bromo-6-(ethoxymethyl)-3,4-dihydroxybenzyl)benzene-1,2-diol]",Kd,3.3 µM

# From paper PMC9048848 (RSC Advances, 2020)
